Test results published in patent US9744164B2, “Neuroprotective polyphenol analogs” (Salk Institute for Biological Studies, priority 2011, dated 2017).

Test system: N9 microglial cells
Assay: anti-inflammatory assay, LPS-induced microglial activation (NO release)
Assay type: cell-based, mouse
Settings: bacterial lipopolysaccharide, derivative 1-10 μM, 24 hr
Protocol: Anti-inflammatory assay. Mouse N9 microglial cells plated in DME with 7.5% DFCS were treated with 10 μg/ml bacterial lipopolysaccharide (Sigma) alone or in the presence of the Fisetin derivatives (1-10 μM) or Fisetin (10 μM) as a positive control. After 24 hr the medium was removed, spun briefly to remove floating cells and 100 μl assayed for NO using 100 μl of the Griess Reagent (Sigma) in a 96 well plate. After incubation for 10 min at room temperature the absorbance at 550 nm was read on a microplate reader.
Three secondary screens allowed assessment of three key activities of Fisetin that are highly relevant to stroke, as well as other neurological disorders: maintenance of glutathione (GSH), the major endogenous cellular antioxidant, inhibition of LPS-induced microglial activation, an indicator of anti-inflammatory activity and PC12 cell differentiation, a measure of neurotrophic activity. All of these activities are relevant to the nerve cell loss seen in stroke (Gelderblom, et al., Stroke. 2009, 40 (5), 1849-1857; Pandya, et al., Cent. Nerv. Syst. Agents. Med. Chem. (2011) Apr. 27; Lewerenz, et al., J. Neurochem. (2010) 113 (2), 502-504). […] To assess GSH maintenance, total intracellular GSH levels after a 24 hr treatment with the compound both in the absence and presence of glutamate, an inducer of GSH loss and oxidative stress (Tan, et al., Curr. Top. Med. Chem. (2001) 1, 497-506; Maher, et al., Free Radical Research. (2006) 40 (10), 1105-1111) was measured Inhibition of LPS-induced microglial activation was determined by treating N9 mouse microglial cells with LPS alone and in the presence of the compounds and assaying NO release into the medium 24 hr later (Zheng, et al., Int. Immunopharmacol. (2008) 8, (3), 484-494). PC12 cell differentiation was determined by treating PC12 cells with the compounds and looking at neurite outgrowth after 24 hr. In all cases, Fisetin was used as a positive control (Sagara, et al., J. Neurochem. (2004) 90, 1144-1155).
The roles of the four different hydroxyl groups in the activity of Fisetin were studied. […] Cell viability was determined after 24 hr by the MTT assay. The ability to maintain GSH (GSH) was determined by treating HT22 cells with different doses of each derivative (1-10 μM) in the presence of 5 mM glutamate. After 24 hr cell extracts were prepared and analyzed for total GSH. Fisetin (10 μM) was used as a positive control. The ability to induce PC12 cell differentiation (PC12 diff'n) was determined by treating PC12 cells in N2 medium with different doses of each derivative (1-10 μM) for 24 hr. Differentiation was assessed by visual inspection with Fisetin (10 μM) as a positive control. Anti-inflammatory activity (microglia) was assessed in N9 microglial cells treated with bacterial lipopolysaccharide alone or in the presence different doses of each derivative (1-10 μM) for 24 hr. Fisetin was used as a positive control. TEAC values, a measure of direct antioxidant activity, were determined using the ABTS+ decolorization assay.

## COc1cc(-c2cc(OC)c3ccccc3n2)ccc1O [CMS-017, 4-methoxy-2-(4-hydroxy,3-methoxyphenyl)quinoline]
  microglia (anti-inflammatory activity): 90%

## COc1cc(-c2ccccc2)nc2ccccc12 [CMS-021, 4-methoxy-2-phenylquinoline]
  microglia (anti-inflammatory activity): 6%

## CCOc1ccc(-c2oc3cc(C)c(C)cc3c(=O)c2O)cc1OCC [CMS-025, 2-(3,4-diethoxyphenyl)-3-hydroxy-6,7-dimethyl-4H-chromen-4-one]
  microglia (anti-inflammatory activity): 11%

## Cc1cc2oc(-c3ccc(O)c(O)c3)c(O)c(=O)c2cc1C [CMS-027, 2-(3,4-dihydroxyphenyl)-3-hydroxy-6,7-dimethyl-4H-chromen-4-one]
  microglia (anti-inflammatory activity): 82%

## CCOc1ccc(-c2oc3c(ccc4ccccc43)c(=O)c2O)cc1OCC [CMS-036, 2-(3,4-diethoxyphenyl)-3-hydroxy-4H-benzo[h]chromen-4-one]
  microglia (anti-inflammatory activity): 13%

## O=c1c(O)c(-c2ccc(O)c(O)c2)oc2ccc3ccccc3c12 [CMS-041, 3-(3,4-dihydroxyphenyl)-2-hydroxy-1H-benzo[f]chromen-1-one]
  microglia (anti-inflammatory activity): 87%

## COc1cc(-c2cc(=O)c3cc(C)c(C)cc3o2)ccc1OCc1ccccc1 [CMS-058, 2-(4-(benzyloxy)-3-methoxyphenyl)-6,7-dimethyl-4H-chromen-4-one]
  microglia (anti-inflammatory activity): 83%

## COc1cc(-c2oc3cc(C)c(C)cc3c(=O)c2O)ccc1OCc1ccccc1 [CMS-059, 2-(4-(benzyloxy)-3-methoxyphenyl)-3-hydroxy-6,7-dimethyl-4H-chromen-4-one]
  microglia (anti-inflammatory activity): 14%

## COc1cc(/C=C/C(=O)c2ccc3ccccc3c2O)ccc1OCc1ccccc1 [CMS-063, (E)-3-(4-(benzyloxy)-3-methoxyphenyl)-1-(1-hydroxynaphthalen-2-yl)prop-2-en-1-one]
  microglia (anti-inflammatory activity): 9%

## COc1cc(-c2cc(=O)c3cc(C)c(C)cc3o2)ccc1O [CMS-064, 2-(4-hydroxy-3-methoxyphenyl)-6,7-dimethyl-4H-chromen-4-one]
  microglia (anti-inflammatory activity): 41%

## COc1cc(-c2oc3c(ccc4ccccc43)c(=O)c2O)ccc1OCc1ccccc1 [CMS-065, 2-(4-(benzyloxy)-3-methoxyphenyl)-3-hydroxy-4H-benzo[h]chromen-4-one]
  microglia (anti-inflammatory activity): 88%

## COc1cc(-c2oc3cc(C)c(C)cc3c(=O)c2O)ccc1O [CMS-069, 3-hydroxy-2-(4-hydroxy-3-methoxyphenyl)-6,7-dimethyl-4H-chromen-4-one]
  microglia (anti-inflammatory activity): 77%

## COc1cc(-c2oc3c(ccc4ccccc43)c(=O)c2O)ccc1O [CMS-070, 3-hydroxy-2-(4-hydroxy-3-methoxyphenyl)-4H-benzo[h]chromen-4-one]
  microglia (anti-inflammatory activity): 78%

## COc1cc(-c2ccc(O)cc2O)nc2ccccc12 [CMS-083, 4-methoxy-2-(2,4-dihydroxyphenyl)quinoline]
  microglia (anti-inflammatory activity): 84%

## CC(C)Oc1cc(-c2ccc(O)cc2O)nc2ccccc12 [CMS-084, 4-isopropoxy-2-(2,4-dihydroxyphenyl)quinoline]
  microglia (anti-inflammatory activity): 64%

## Cc1cc(O)c(C(=O)/C=C/c2ccc(O)cc2O)cc1C [CMS-087, (E)-3-(2,4-dihydroxyphenyl)-1-(2-hydroxy-4,5-dimethylphenyl)prop-2-en-1-one]
  microglia (anti-inflammatory activity): 53%

## COc1ccc(/C=C/C(=O)c2cc(C)c(C)cc2O)cc1O [CMS-088, (E)-1-(2-hydroxy-4,5-dimethylphenyl)-3-(3-hydroxy-4-methoxyphenyl)prop-2-en-1-one]
  microglia (anti-inflammatory activity): 56%

## COc1ccc(-c2oc3cc(C)c(C)cc3c(=O)c2O)cc1O [CMS-092, 3-hydroxy-2-(3-hydroxy-4-methoxyphenyl)-6,7-dimethyl-4H-chromen-4-one]
  microglia (anti-inflammatory activity): 72%
